Measured values taken from the supplement of paper PMC11061612.

Tests used:
Test in all cases: Bliss excess, mean over the matrix (fraction); higher = more synergy
[1] = tested on: KYAE-1 (Esophageal Adenocarcinoma)
Method in brief: (§1)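 After 24 hours at 37°C and 5% CO2 in 1536-well plates, cells in DMEM/F12 or RPMI plus 10% FBS received two-drug dose matrices for 72 hours. Viability came from CellTiter-Glo 2.0 luminescence and was scaled as inhibition, anchored at 0 by vehicle wells and at 1 by blank wells. Combination Emax is taken as the second-highest inhibition in the matrix, and Bliss excess as the observed combination effect less EA + EB − EA·EB, with EA and EB the single-agent effects.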

[2] = tested on: HH (T-Cell Non-Hodgkin's Lymphoma)
Method in brief: as §1

[3] = tested on: YAPC (Pancreatic Carcinoma)
Method in brief: as §1

[4] = tested on: SNU-449 (Hepatocellular Carcinoma)
Method in brief: as §1

[5] = tested on: NCI-H1568 (Lung Adenocarcinoma)
Method in brief: as §1

BPH-1 (Non-Cancerous) = tested on: BPH-1 (Non-Cancerous)
Method in brief: as §1

[6] = tested on: ALL-PO (B-Lymphoblastic Leukemia)
Method in brief: as §1

NCI-H2722 (Mesothelioma) = tested on: NCI-H2722 (Mesothelioma)
Method in brief: as §1

[7] = tested on: BFTC-909 (Kidney Carcinoma)
Method in brief: as §1

[8] = tested on: NCI-H209 (Small Cell Lung Carcinoma)
Method in brief: as §1

O=C(c1cc(Cc2n[nH]c(=O)c3ccccc23)ccc1F)N1CCN(C(=O)C2CC2)CC1 [Olaparib] + CC1(C)CCC(CN2CCN(c3ccc(C(=O)NS(=O)(=O)c4ccc(NCC5CCOCC5)c([N+](=O)[O-])c4)c(Oc4cnc5[nH]ccc5c4)c3)CC2)=C(c2ccc(Cl)cc2)C1 [Venetoclax] (first compound max 10 µM, 7x7, partner max 1 µM)
Bliss excess [1]: -0.0116
Bliss excess [2]: -0.0246
Bliss excess [3]: -0.0282
Bliss excess [4]: -0.0418

CC1(C)CCC(CN2CCN(c3ccc(C(=O)NS(=O)(=O)c4ccc(NCC5CCOCC5)c([N+](=O)[O-])c4)c(Oc4cnc5[nH]ccc5c4)c3)CC2)=C(c2ccc(Cl)cc2)C1 [Venetoclax] + C1CN(CCC1(C(=O)N[C@@H](CCO)C2=CC=C(C=C2)Cl)N)C3=NC=NC4=C3C=CN4 [Capivasertib] (first compound max 1 µM, 7x7, partner max 3 µM)
Bliss excess [5]: -0.0306
Bliss excess [1]: -0.0582
Bliss excess (BPH-1 (Non-Cancerous)): -0.033
Bliss excess [6]: 0.0446
Bliss excess [2]: 0.0213
Bliss excess (NCI-H2722 (Mesothelioma)): -0.0671
Bliss excess [3]: -0.0461
Bliss excess [4]: -0.075
Bliss excess [7]: -0.0292
Bliss excess [8]: -0.0005

CN(CCO)CC[C@H](CSc1ccccc1)Nc1ccc(S(=O)(=O)NC(=O)c2ccc(N3CCC([C@@H](O)c4ccccc4-c4ccc(Cl)cc4)CC3)cc2)cc1S(=O)(=O)C(F)(F)F [AZD4320] + CS(=O)(=O)CCNCc1ccc(-c2ccc3ncnc(Nc4ccc(OCc5cccc(F)c5)c(Cl)c4)c3c2)o1 [Lapatinib] (first compound max 1 µM, 7x7, partner max 10 µM)
Bliss excess [1]: 0.0699
Bliss excess [2]: 0.0112
Bliss excess [3]: -0.0148
Bliss excess [4]: 0.021

CC1(C)CCC(CN2CCN(c3ccc(C(=O)NS(=O)(=O)c4ccc(NCC5CCOCC5)c([N+](=O)[O-])c4)c(Oc4cnc5[nH]ccc5c4)c3)CC2)=C(c2ccc(Cl)cc2)C1 [Venetoclax] + CN(C)CCCOc1ccc(-c2ccc3ncc4c(c3c2)n(C2CCOCC2)c(=O)n4C)cn1 [AZD0156] (first compound max 1 µM, 7x7, partner max 1 µM)
Bliss excess [5]: -0.0166
Bliss excess [1]: -0.0166
Bliss excess (BPH-1 (Non-Cancerous)): -0.0214
Bliss excess [6]: 0.108
Bliss excess [2]: -0.0066
Bliss excess (NCI-H2722 (Mesothelioma)): -0.081
Bliss excess [3]: -0.02
Bliss excess [4]: -0.07
Bliss excess [7]: 0.0072
Bliss excess [8]: 0.0423

Cc1c2c(nn1C)CSCc1cc(n(C)n1)CSc1cc(c3ccccc3c1)OCCCc1c(C(=O)O)n(C)c3c-2c(Cl)ccc13 [AZD5991] + C1CN(CCC1(C(=O)N[C@@H](CCO)C2=CC=C(C=C2)Cl)N)C3=NC=NC4=C3C=CN4 [Capivasertib] (first compound max 1 µM, 7x7, partner max 3 µM)
Bliss excess [5]: -0.012
Bliss excess [1]: -0.0194
Bliss excess (BPH-1 (Non-Cancerous)): 0.0123
Bliss excess [6]: 0.0327
Bliss excess [2]: 0.0176
Bliss excess (NCI-H2722 (Mesothelioma)): -0.0147
Bliss excess [3]: -0.0095
Bliss excess [4]: -0.0238
Bliss excess [7]: 0.0265
Bliss excess [8]: 0.0273

Cc1c2c(nn1C)CSCc1cc(n(C)n1)CSc1cc(c3ccccc3c1)OCCCc1c(C(=O)O)n(C)c3c-2c(Cl)ccc13 [AZD5991] + CCN(CCO)CCCOc1ccc2c(Nc3cc(CC(=O)Nc4cccc(F)c4)[nH]n3)ncnc2c1 [AZD2811] (first compound max 1 µM, 7x7, partner max 1 µM)
Bliss excess [5]: -0.0051
Bliss excess [1]: 0.0422
Bliss excess (BPH-1 (Non-Cancerous)): 0.0077
Bliss excess [6]: -0.0077
Bliss excess [2]: -0.049
Bliss excess (NCI-H2722 (Mesothelioma)): -0.0407
Bliss excess [3]: -0.0037
Bliss excess [4]: -0.0041
Bliss excess [7]: 0.0156
Bliss excess [8]: 0.191

CC1(C)CCC(CN2CCN(c3ccc(C(=O)NS(=O)(=O)c4ccc(NCC5CCOCC5)c([N+](=O)[O-])c4)c(Oc4cnc5[nH]ccc5c4)c3)CC2)=C(c2ccc(Cl)cc2)C1 [Venetoclax] + CCN(CCO)CCCOc1ccc2c(Nc3cc(CC(=O)Nc4cccc(F)c4)[nH]n3)ncnc2c1 [AZD2811] (first compound max 1 µM, 7x7, partner max 1 µM)
Bliss excess [5]: -0.0339
Bliss excess [1]: -0.0002
Bliss excess (BPH-1 (Non-Cancerous)): -0.0198
Bliss excess [6]: 0.0129
Bliss excess [2]: -0.0152
Bliss excess (NCI-H2722 (Mesothelioma)): -0.0269
Bliss excess [3]: -0.0103
Bliss excess [4]: -0.0642
Bliss excess [7]: -0.0289
Bliss excess [8]: 0.356

C[C@@H]1COCCN1c1cc(C2([S@](C)(=N)=O)CC2)nc(-c2ccnc3[nH]ccc23)n1 [AZD6738] + Nc1ccn([C@@H]2O[C@H](CO)[C@@H](O)C2(F)F)c(=O)n1 [Gemcitabine] (first compound max 10 µM, 7x7, partner max 0.3 µM)
Bliss excess [1]: -0.0077
Bliss excess [2]: 0.0778
Bliss excess [3]: 0.0296
Bliss excess [4]: 0.0623

Cc1nc(-c2cn3c(n2)-c2ccc(-c4cnn(C(C)(C)C(N)=O)c4)cc2OCC3)n(C(C)C)n1 [Taselisib] + O=C(Nc1ccc2[nH]nc(-c3ccncc3)c2c1)[C@@H]1CCN(CC(=O)N2CCN(c3ccc(-c4ncccn4)cc3)CC2)C1 [SCH772984] (first compound max 10 µM, 7x7, partner max 5 µM)
Bliss excess [1]: -0.0018
Bliss excess [2]: 0.0858
Bliss excess [3]: 0.134
Bliss excess [4]: 0.0076

CS(=O)(=O)CCNCc1ccc(-c2ccc3ncnc(Nc4ccc(OCc5cccc(F)c5)c(Cl)c4)c3c2)o1 [Lapatinib] + Cn1cnc2c(F)c(Nc3ccc(Br)cc3Cl)c(C(=O)NOCCO)cc21 [Selumetinib] (first compound max 10 µM, 7x7, partner max 10 µM)
Bliss excess [1]: 0.0206
Bliss excess [2]: -0.0496
Bliss excess [3]: 0.0037
Bliss excess [4]: -0.0601

CS(=O)(=O)CCNCc1ccc(-c2ccc3ncnc(Nc4ccc(OCc5cccc(F)c5)c(Cl)c4)c3c2)o1 [Lapatinib] + NC1(c2ccc(-c3nc4ccn5c(=O)[nH]nc5c4cc3-c3ccccc3)cc2)CCC1 [MK-2206] (first compound max 10 µM, 7x7, partner max 10 µM)
Bliss excess [1]: 0.0176
Bliss excess [2]: -0.0002
Bliss excess [3]: 0.0208
Bliss excess [4]: 0.0446
Bliss excess [7]: -0.0279

CC1(C)CCC(CN2CCN(c3ccc(C(=O)NS(=O)(=O)c4ccc(NCC5CCOCC5)c([N+](=O)[O-])c4)c(Oc4cnc5[nH]ccc5c4)c3)CC2)=C(c2ccc(Cl)cc2)C1 [Venetoclax] + CS(=O)(=O)CCNCc1ccc(-c2ccc3ncnc(Nc4ccc(OCc5cccc(F)c5)c(Cl)c4)c3c2)o1 [Lapatinib] (first compound max 1 µM, 7x7, partner max 10 µM)
Bliss excess [1]: 0.0085
Bliss excess [2]: -0.0178
Bliss excess [3]: -0.012
Bliss excess [4]: -0.0572

C[C@@H]1COCCN1c1cc(C2([S@](C)(=N)=O)CC2)nc(-c2ccnc3[nH]ccc23)n1 [AZD6738] + C1CC(C1)(C(=O)[O-])C(=O)[O-].N.N.[Pt+2] [Carboplatin] (first compound max 10 µM, 7x7, partner max 10 µM)
Bliss excess [1]: -0.015
Bliss excess [2]: -0.0016
Bliss excess [3]: -0.0227
Bliss excess [4]: -0.0341

O=C(c1cc(Cc2n[nH]c(=O)c3ccccc23)ccc1F)N1CCN(C(=O)C2CC2)CC1 [Olaparib] + CN(CC[C@H](CSC1=CC=CC=C1)NC2=C(C=C(C=C2)S(=O)(=O)NC(=O)C3=CC=C(C=C3)N4CCC(CC4)[C@H](C5=CC=CC=C5C6=CC=C(C=C6)Cl)O)S(=O)(=O)C(F)(F)F)CCO [AZD4320] (first compound max 10 µM, 7x7, partner max 1 µM)
Bliss excess [1]: 0.0363
Bliss excess [2]: -0.0133
Bliss excess [3]: -0.0169
Bliss excess [4]: -0.0422

Cc1c2c(nn1C)CSCc1cc(n(C)n1)CSc1cc(c3ccccc3c1)OCCCc1c(C(=O)O)n(C)c3c-2c(Cl)ccc13 [AZD5991] + Cc1cc2ncnn2cc1Nc1ncc2c(n1)n(C1CCOCC1)c(=O)n2C [AZD7648] (first compound max 1 µM, 7x7, partner max 10 µM)
Bliss excess [5]: -0.0717
Bliss excess [1]: -0.0285
Bliss excess (BPH-1 (Non-Cancerous)): -0.0632
Bliss excess [6]: -0.0304
Bliss excess [2]: -0.0536
Bliss excess (NCI-H2722 (Mesothelioma)): -0.0785
Bliss excess [3]: 0.0003
Bliss excess [4]: -0.0453
Bliss excess [7]: 0.0101

Cc1c2c(nn1C)CSCc1cc(n(C)n1)CSc1cc(c3ccccc3c1)OCCCc1c(C(=O)O)n(C)c3c-2c(Cl)ccc13 [AZD5991] + CC(=O)O[C@H]1C(=O)[C@@]2(C)[C@H]([C@H](OC(=O)c3ccccc3)[C@]3(O)C[C@H](OC(=O)[C@H](O)[C@@H](NC(=O)c4ccccc4)c4ccccc4)C(C)=C1C3(C)C)[C@]1(OC(C)=O)CO[C@@H]1C[C@@H]2O [Paclitaxel] (first compound max 1 µM, 7x7, partner max 3 µM)
Bliss excess [1]: 0.0015
Bliss excess [2]: 0.0737
Bliss excess [3]: 0.0224
Bliss excess [4]: -0.0404

C[C@@H](Nc1cc(F)cc(F)c1)c1cc(C(=O)N(C)C)cc2c(=O)cc(N3CCOCC3)oc12 [AZD8186] + C1CN(CCC1(C(=O)N[C@@H](CCO)C2=CC=C(C=C2)Cl)N)C3=NC=NC4=C3C=CN4 [AZD5363] (first compound max 10 µM, 7x7, partner max 10 µM)
Bliss excess [1]: -0.0101
Bliss excess [2]: -0.125
Bliss excess [3]: -0.0214
Bliss excess [4]: -0.0206

Cc1c2c(nn1C)CSCc1cc(n(C)n1)CSc1cc(c3ccccc3c1)OCCCc1c(C(=O)O)n(C)c3c-2c(Cl)ccc13 [AZD5991] + Nc1ccn([C@@H]2O[C@H](CO)[C@@H](O)C2(F)F)c(=O)n1 [Gemcitabine] (first compound max 1 µM, 7x7, partner max 0.3 µM)
Bliss excess [1]: 0.0034
Bliss excess [2]: -0.0369
Bliss excess [3]: -0.0165
Bliss excess [4]: -0.0021

O=C(c1cc(Cc2n[nH]c(=O)c3ccccc23)ccc1F)N1CCN(C(=O)C2CC2)CC1 [Olaparib] + COc1nnc2ccc(N3CCC(c4ccc(OCCN5CCN(C)C(=O)[C@H]5C)cc4)CC3)nn12 [AZD5153] (first compound max 10 µM, 7x7, partner max 1 µM)
Bliss excess [1]: -0.0202
Bliss excess [2]: -0.0066
Bliss excess [3]: -0.0239
Bliss excess [4]: -0.0587

Cc1c2c(nn1C)CSCc1cc(n(C)n1)CSc1cc(c3ccccc3c1)OCCCc1c(C(=O)O)n(C)c3c-2c(Cl)ccc13 [AZD5991] + CS(=O)(=O)CCNCc1ccc(-c2ccc3ncnc(Nc4ccc(OCc5cccc(F)c5)c(Cl)c4)c3c2)o1 [Lapatinib] (first compound max 1 µM, 7x7, partner max 10 µM)
Bliss excess [1]: 0.0569
Bliss excess [2]: -0.0635
Bliss excess [3]: -0.0084
Bliss excess [4]: 0.0212

C[C@@H](Oc1cc(-c2cnn(C3CCNCC3)c2)cnc1N)c1c(Cl)ccc(F)c1Cl [Crizotinib] + Cn1cnc2c(F)c(Nc3ccc(Br)cc3Cl)c(C(=O)NOCCO)cc21 [Selumetinib] (first compound max 10 µM, 7x7, partner max 10 µM)
Bliss excess [1]: -0.0153
Bliss excess [2]: -0.0238
Bliss excess [3]: -0.0319
Bliss excess [4]: -0.0665

Cc1c2c(nn1C)CSCc1cc(n(C)n1)CSc1cc(c3ccccc3c1)OCCCc1c(C(=O)O)n(C)c3c-2c(Cl)ccc13 [AZD5991] + CC1(C)CCC(CN2CCN(c3ccc(C(=O)NS(=O)(=O)c4ccc(NCC5CCOCC5)c([N+](=O)[O-])c4)c(Oc4cnc5[nH]ccc5c4)c3)CC2)=C(c2ccc(Cl)cc2)C1 [Venetoclax] (first compound max 1 µM, 7x7, partner max 1 µM)
Bliss excess [5]: -0.0334
Bliss excess [1]: 0.0049
Bliss excess (BPH-1 (Non-Cancerous)): -0.0148
Bliss excess [2]: 0.0016
Bliss excess (NCI-H2722 (Mesothelioma)): -0.0733
Bliss excess [3]: -0.0318
Bliss excess [4]: -0.0286
Bliss excess [7]: -0.0001
Bliss excess [8]: 0.241
